Consider 26 compounds from US9790217B2, “Pyridinyloxy- and phenyloxy-pyrazolyl compounds” (Hoffmann-La Roche Inc., priority 2014, dated 2017).

One experiment concerns the target human CYP11B2 (Homo sapiens (Human), UniProt P19099). Put plainly: G-402 cellular enzyme assay, human CYP11B2 (aldosterone release, HTRF). In kind it is cell-based. The settings on record: G-402 cells expressing human CYP11B2; 1 μM Deoxycorticosterone. An excerpt: (§1) Herein we identified the use of the G-402 cell line as a host cell to ectopically express (transiently or stably) enzymes of the CYP11 family. Specifically we developed stable G-402 cells expressing ectopically human CYP11B1, human CYP11B2, human CYP11A1, cynmolgus CYP11B1 or cynomolgus CYP11B2 enzyme activity. Importantly the identified cell line G-402 expresses co-factors (adrenodoxin and adrenodoxin reductase) important for the activity of the CYP11 family and no relevant enzyme activity of the CYP11 family (in comparison to H295R cells) was detected in these cells. Therefore the G-402 cell line is uniquely suited as a host cell for the ectopic expression of enzymes from the CYP11 family.
(§2) G-402 cells can be obtained from ATCC (CRL-1440) and were originally derived from a renal leiomyoblastoma.
(§3) The expression plasmids contains the ORF for either human/cyno CYP11B1 or CYP11B2 under the control of a suitable promoter (CMV-promoter) and a suitable resistance marker (neomycin). Using standard techniques the expression plasmid is transfected into G-402 cells and these cells are then selected for expressing the given resistance markers. Individual cell-clones are then selected and assessed for displaying the desired enzymatic activity using 11-Deoxycorticosterone (Cyp11B2) or 11-Deoxycortisol (Cyp11B1) as a substrate.
(§4) G-402 cells expressing CYP11 constructs were established as described above and maintained in McCoy's 5a Medium Modified, ATCC Catalog No. 30-2007 containing 10% FCS and 400 μg/ml G418 (Geneticin) at 37° C. under an atmosphere of 5% CO2/95% air. Cellular enzyme assays were performed in DMEM/F12 medium containing 2.5% charcoal treated FCS and appropriate concentration of substrate (0.3-10 uM 11-Deoxycorticosterone, 11-Deoxycortisol or Corticosterone). For assaying enzymatic activity, cells were plated onto 96 well plates and incubated for 16 h. An aliquot of the supernatant is then transferred and analyzed for the concentration of the expected product (Aldosterone for CYP11B2; Cortisol for CYP11B1). The concentrations of these steroids can be determined using HTRF assays from CisBio analyzing either Aldosterone or Cortisol.
(§5) Inhibition of the release of produced steroids can be used as a measure of the respective enzyme inhibition by test compounds added during the cellular enzyme assay. The dose dependent inhibition of enzymatic activity by a compound is calculated by means of plotting added inhibitor concentrations (x-axes) vs. measured steroid/product level (y-axes). The inhibition is then calculated by fitting the following 4-parameter sigmoidal function (Morgan-Mercer-Flodin (MMF) model) to the raw data points using the least squares method:
(§6) [formula] wherein, A is the maximum y value, B is the EC50 factor determined using XLFit, C is the minimum y value and D is the slope value.
(§7) EC50 values for compounds claimed herein were tested with the G402-based assay system described. Cyp11B2 enzyme activity was tested in presence of 1 μM Deoxycorticosterone and variable amounts of inhibitors; Cyp11B1 enzyme activity was tested in presence of 1 μM Deoxycortisol and variable amounts of inhibitors.
(In general: TR-FRET usually uses a lanthanide donor and a delayed reading to cut background.)

For a further experiment, the target named is human CYP11B1 (Homo sapiens (Human), UniProt P15538). Put plainly: G-402 cellular enzyme assay, human CYP11B1 (cortisol release, HTRF). In kind it is cell-based. The settings on record: G-402 cells expressing human CYP11B1; 1 μM Deoxycortisol.
From the text: as §1, §2, §3, §4, §5, §6, §7

human CYP11B2, sequence (P19099 25-503): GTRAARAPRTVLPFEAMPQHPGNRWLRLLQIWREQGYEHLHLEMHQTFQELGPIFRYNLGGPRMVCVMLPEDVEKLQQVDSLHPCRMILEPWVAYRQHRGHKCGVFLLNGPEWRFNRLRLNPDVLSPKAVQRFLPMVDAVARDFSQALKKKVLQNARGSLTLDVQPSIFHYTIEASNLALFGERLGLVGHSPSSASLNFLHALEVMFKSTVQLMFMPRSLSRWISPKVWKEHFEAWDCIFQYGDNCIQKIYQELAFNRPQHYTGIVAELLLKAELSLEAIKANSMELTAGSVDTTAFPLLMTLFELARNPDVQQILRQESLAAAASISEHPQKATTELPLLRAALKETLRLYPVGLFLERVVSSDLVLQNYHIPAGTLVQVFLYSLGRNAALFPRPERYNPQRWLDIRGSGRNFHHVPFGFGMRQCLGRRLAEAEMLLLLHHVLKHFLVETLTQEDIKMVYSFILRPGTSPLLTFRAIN
human CYP11B1, sequence (P15538 25-503): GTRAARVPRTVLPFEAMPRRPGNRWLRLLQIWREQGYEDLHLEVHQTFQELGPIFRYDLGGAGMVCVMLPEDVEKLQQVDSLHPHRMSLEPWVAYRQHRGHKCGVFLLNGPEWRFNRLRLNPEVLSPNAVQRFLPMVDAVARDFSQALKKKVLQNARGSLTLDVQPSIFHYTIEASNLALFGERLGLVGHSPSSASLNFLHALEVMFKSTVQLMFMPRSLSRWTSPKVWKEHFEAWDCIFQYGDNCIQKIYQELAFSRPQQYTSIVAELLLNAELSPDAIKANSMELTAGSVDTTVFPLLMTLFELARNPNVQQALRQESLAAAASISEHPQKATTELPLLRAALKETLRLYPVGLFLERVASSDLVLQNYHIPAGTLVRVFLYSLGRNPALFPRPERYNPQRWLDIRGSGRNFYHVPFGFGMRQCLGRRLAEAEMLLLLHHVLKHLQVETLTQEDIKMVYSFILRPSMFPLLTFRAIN

As a reminder, the EC50 is the midpoint of the concentration-response curve. A lower EC50 goes with a more potent agent. Regarding `N#Cc1ccc(Oc2cn[nH]c2-c2cccc(C(=O)N3CC(CO)C3)c2)cc1` [Example 47, 4-[[3-[3-[3-(Hydroxymethyl)azetidine-1-carbonyl]phenyl]-1H-pyrazol-4-yl]oxy]benzonitrile], the figures for the EC50 on human CYP11B2 and at human CYP11B1 were 281 nM and 159 nM, respectively.

As to `N#Cc1ccc(Oc2cn[nH]c2-c2cccc(OCc3ccncc3)c2F)cc1` [Example 85, 4-[[3-[2-Fluoro-3-(pyridin-4-ylmethoxy)phenyl]-1H-pyrazol-4-yl]oxy]benzonitrile], the values for the EC50 on human CYP11B2 and at human CYP11B1 were 0.3 nM and 5.2 nM, respectively.

In the case of `Fc1c(Cl)cccc1-c1[nH]ncc1Oc1ccc(Cl)cc1` [Example 31, 5-(3-Chloro-2-fluorophenyl)-4-(4-chlorophenoxy)-1H-pyrazole], the values for the EC50 at human CYP11B2 and on human CYP11B1 were 191 nM and 1820 nM, respectively.

Consider `Fc1cccc(-c2[nH]ncc2Oc2ccc(Cl)cc2)c1Cl` [Example 34, 5-(2-Chloro-3-fluorophenyl)-4-(4-chlorophenoxy)-1H-pyrazole], for which the 50% effective concentration (EC50) on human CYP11B2 came to 39.2 nM; at human CYP11B1, 262 nM.

For `N#Cc1ccc(Oc2cn[nH]c2-c2ccccc2O)cc1` [Example 78, 4-[[3-(2-Hydroxyphenyl)-1H-pyrazol-4-yl]oxy]benzonitrile], the values for the EC50 at human CYP11B2 and at human CYP11B1 were 0.3 nM and 10.7 nM, respectively.

In the case of `N#Cc1ccc(Oc2cn[nH]c2-c2cccc(COc3cccc(F)n3)c2)cc1` [Example 69, 4-[[3-[3-[(6-Fluoropyridin-2-yl)oxymethyl]phenyl]-1H-pyrazol-4-yl]oxy]benzonitrile], the EC50 at human CYP11B2 is 16.9 nM; on human CYP11B1, 47.7 nM.

As for `Fc1cccc(Oc2cn[nH]c2-c2ccc(Cl)cc2Cl)n1` [Example 21, 2-[[5-(2,4-Dichlorophenyl)-1H-pyrazol-4-yl]oxy]-6-fluoropyridine], the figures for the EC50 at human CYP11B2 and on human CYP11B1 were 101 nM and 841 nM, respectively.

As to `Cc1cccc(Oc2c[nH]nc2-c2ccc(Cl)cc2Cl)n1` [Example 22, 2-[[3-(2,4-Dichlorophenyl)-1H-pyrazol-4-yl]oxy]-6-methylpyridine], the values for the concentration giving a half-maximal response (EC50) at human CYP11B2 and on human CYP11B1 were 42.1 nM and 611 nM, respectively.

Consider `Fc1cc(Cl)ccc1Oc1cn[nH]c1-c1ccccc1Cl` [Example 24, 4-(4-Chloro-2-fluorophenoxy)-5-(2-chlorophenyl)-1H-pyrazole], for which the EC50 on human CYP11B2 turned out to be 10.2 nM; on human CYP11B1, 350 nM.

Regarding `FC(F)(F)c1ccc(Oc2cn[nH]c2-c2ccccc2Cl)cc1` [Example 23, 5-(2-Chlorophenyl)-4-[4-(trifluoromethyl)phenoxy]-1H-pyrazole], the EC50 at human CYP11B2 is 26.8 nM; at human CYP11B1 it was 723 nM.

As to `Cc1cc(COc2cccc(-c3[nH]ncc3Oc3ccc(C#N)cc3)c2)on1` [Example 52, 4-[[3-[3-[(3-Methyl-1,2-oxazol-5-yl)methoxy]phenyl]-1H-pyrazol-4-yl]oxy]benzonitrile], the results for the EC50 at human CYP11B2 and on human CYP11B1 were 14.8 nM and 32.3 nM, respectively.

For the compound `Cc1ccc(Oc2cn[nH]c2-c2ccccc2Cl)cn1` [Example 20, 5-[[5-(2-Chlorophenyl)-1H-pyrazol-4-yl]oxy]-2-methylpyridine], the figures for the EC50 at human CYP11B2 and at human CYP11B1 were 311 nM and 3390 nM, respectively.

For the compound `COC(=O)c1cccc(-c2[nH]ncc2Oc2ccc(C#N)cc2)c1` [Example 33, Methyl 3-[4-(4-cyanophenoxy)-1H-pyrazol-3-yl]benzoate], the EC50 on human CYP11B2 is 17.5 nM; at human CYP11B1, 31.3 nM.

In the case of `N#Cc1ccc(Oc2cn[nH]c2-c2ccccc2OCc2cccnc2)cc1` [Example 77, 4-[[3-[2-(Pyridin-3-ylmethoxy)phenyl]-1H-pyrazol-4-yl]oxy]benzonitrile], the half-maximal effective concentration (EC50) at human CYP11B2 was 0.3 nM; at human CYP11B1 it was 11.4 nM.

On to `N#Cc1ccc(Oc2cn[nH]c2C2CCCN(C(=O)c3cccnc3)C2)c(F)c1` (racemic) [Example 91, (rac)-3-Fluoro-4-[[3-[1-(pyridine-3-carbonyl)piperidin-3-yl]-1H-pyrazol-4-yl]oxy]benzonitrile], for which the results for the EC50 at human CYP11B2 and at human CYP11B1 were 1260 nM and 9010 nM, respectively.

As for `Cn1nncc1COc1c(Cl)cccc1-c1[nH]ncc1Oc1ccc(C#N)cc1` [Example 90, 4-[[3-[3-Chloro-2-[(3-methyltriazol-4-yl)methoxy]phenyl]-1H-pyrazol-4-yl]oxy]benzonitrile], the EC50 turned out to be 159 nM at human CYP11B2 and 1580 nM on human CYP11B1.

For `Cn1cc(-c2[nH]ncc2Oc2ccc(C#N)cc2)cn1` [Example 67, 4-[[3-(1-Methylpyrazol-4-yl)-1H-pyrazol-4-yl]oxy]benzonitrile], the EC50 at human CYP11B2 turned out to be 251 nM; on human CYP11B1, 3270 nM.

For `COc1ccc(Cl)cc1-c1[nH]ncc1Oc1ccc(Cl)cc1` [Example 10, 3-(5-Chloro-2-methoxyphenyl)-4-(4-chlorophenoxy)-1H-pyrazole], the EC50 on human CYP11B2 is 60.8 nM; on human CYP11B1 it was 835 nM.

Take `N#Cc1ccc(Oc2cn[nH]c2-c2cccc(CN3CC(F)(CO)C3)c2)cc1` [Example 74, 4-[[3-[3-[[3-Fluoro-3-(hydroxymethyl)azetidin-1-yl]methyl]phenyl]-1H-pyrazol-4-yl]oxy]benzonitrile]: the EC50 on human CYP11B2 worked out at 19.7 nM; on human CYP11B1 it was 36.2 nM.

As to `N#Cc1ccc(Oc2cn[nH]c2-c2ccccc2OCc2ccncc2)cc1` [Example 76, 4-[[3-[2-(Pyridin-4-ylmethoxy)phenyl]-1H-pyrazol-4-yl]oxy]benzonitrile], the results for the EC50 on human CYP11B2 and on human CYP11B1 were 0.2 nM and 6.8 nM, respectively.

Turning to `N#Cc1ccc(Oc2cn[nH]c2-c2ccccc2Cl)cc1` [Example 25, 4-[[5-(2-Chlorophenyl)-1H-pyrazol-4-yl]oxy]benzonitrile], the EC50 at human CYP11B2 is 0.2 nM; at human CYP11B1 it was 18.5 nM.

Take `CS(=O)(=O)c1ccc(-c2[nH]ncc2Oc2ccc(Cl)cc2)c(Cl)c1` [Example 42, 5-(2-Chloro-4-methylsulfonylphenyl)-4-(4-chlorophenoxy)-1H-pyrazole]: the figures for the EC50 on human CYP11B2 and at human CYP11B1 were 29.8 nM and 345 nM, respectively.

For `Cn1cc(C(=O)N2CCCC(c3[nH]ncc3Oc3ccc(C#N)cc3F)C2)cn1` (racemic) [Example 89, (rac)-3-Fluoro-4-[[5-[1-(1-methylpyrazole-4-carbonyl)piperidin-3-yl]-1H-pyrazol-4-yl]oxy]benzonitrile], the EC50 was found to be 231 nM on human CYP11B2 and 7760 nM at human CYP11B1.

For the compound `N#Cc1ccc(Oc2cn[nH]c2-c2ccccc2OCc2ccccn2)cc1` [Example 79, 4-[[3-[2-(Pyridin-2-ylmethoxy)phenyl]-1H-pyrazol-4-yl]oxy]benzonitrile], the results for the concentration giving a half-maximal response (EC50) on human CYP11B2 and on human CYP11B1 were 0.2 nM and 2.5 nM, respectively.

As for `COc1ccc(-c2[nH]ncc2Oc2ccc(Cl)cc2)c(OC)c1` [Example 5, 4-(4-Chlorophenoxy)-3-(2,4-dimethoxyphenyl)-1H-pyrazole], the 50% effective concentration (EC50) at human CYP11B2 was found to be 2.5 nM; at human CYP11B1, 11.6 nM.

With `N#Cc1ccc(Oc2cn[nH]c2-c2cccc(OCc3ccccn3)c2)cc1` [Example 50, 4-[[3-[3-(Pyridin-2-ylmethoxy)phenyl]-1H-pyrazol-4-yl]oxy]benzonitrile], the EC50 at human CYP11B2 was determined as 10.4 nM; at human CYP11B1, 51.6 nM.
